Assay results reported in PubChem BioAssay (NCI).
Values joined by “and” are separate entries in the source; they are usually repeats but may differ in a detail not shown here. Identical values can stand only once.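 Step 1: Grow cells in 96-well plates. Step 2: Expose to compound for 48 hours at 5 concentrations. Step 3: Interpolate endpoints linearly; if unreached, use highest concentration. Here, GI50 denotes the concentration required for 50% inhibition of growth. TGI is the concentration that stops growth completely.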

Assays:
Test in all cases: inhibition of tumour cell growth, NCI panel, 48 h
SF-295 CNS = system: SF-295 CNS
MCF7 breast = system: MCF7 breast
NCI-H226 lung = system: NCI-H226 lung
NCI-H522 lung = system: NCI-H522 lung
OVCAR-4 ovarian = system: OVCAR-4 ovarian
SK-MEL-28 melanoma = system: SK-MEL-28 melanoma
U251 CNS = system: U251 CNS
NCI-H23 lung = system: NCI-H23 lung
SF-539 CNS = system: SF-539 CNS
HCC-2998 colon = system: HCC-2998 colon

Structure (SMILES) | TGI (SF-295 CNS) [µM] | TGI (MCF7 breast) [µM] | TGI (NCI-H226 lung) | TGI (NCI-H522 lung) [µM] | TGI (OVCAR-4 ovarian) | TGI (SK-MEL-28 melanoma) | TGI (U251 CNS) [µM] | TGI (NCI-H23 lung) [µM] | TGI (SF-539 CNS) [µM] | TGI (HCC-2998 colon) | GI50 (SF-295 CNS) [µM] | GI50 (NCI-H226 lung) [µM] | GI50 (NCI-H522 lung) [µM] | GI50 (OVCAR-4 ovarian) [µM] | GI50 (SK-MEL-28 melanoma) | GI50 (U251 CNS) | GI50 (NCI-H23 lung) [µM] | GI50 (SF-539 CNS) [µM] | GI50 (MCF7 breast) [µM] | GI50 (HCC-2998 colon) [µM]
CCc1ncc(CO)n1Cc1cccc2ccccc12 | > 100 | > 100 | > 100 µM | > 100 | > 100 µM | > 100 µM | > 100 | > 100 | > 100 | – | – | – | – | – | – | – | – | – | – | –
COc1ccc([C@@H]2OC(=O)C3C2C(=O)O[C@H]3c2ccc(OC)cc2)cc1 (stereo not given in full) | > 100 | – | – | – | > 100 µM | > 100 µM | > 100 | > 100 | > 100 | > 100 µM | – | – | – | – | – | – | – | – | – | –
[CH3][Hg]/[N]=C(/N)NC#N | 54.5 | – | 32.5 µM | 2.57 | 9.31 µM | 30.1 µM | 56 | 24.5 | 32.4 | – | 18.5 | 15.6 | 1.29 | 3.23 | 11.9 µM | 23.6 µM | 10.2 | 17.7 | – | –
Cc1cc(Cl)cc2c1NC(=O)C2(O)C(C(=O)c1ccccc1)c1ccccc1 (stereo not given) | > 100 | – | > 100 µM and 58.3 µM | > 100 | > 100 µM and 40 µM | > 100 µM and 51 µM | > 100 | > 100 | 39.7 | > 100 µM and 60.4 µM | – | – | – | – | 96.6 µM and 24.5 µM | > 100 µM and 31.1 µM | – | – | – | –
Cc1cc(C)c(/C=N/NS(=O)(=O)c2ccccc2)c(C)c1 | > 100 | – | > 100 µM | – | > 100 µM | > 100 µM | > 100 | > 100 | > 100 | > 100 µM | – | – | – | – | – | – | – | – | – | –
COC(=O)C(C(=O)C(=O)Nc1ccccc1C)c1nc2ccc([N+](=O)[O-])cc2[nH]c1=O (stereo not given) | > 100 | – | > 100 µM | > 100 | > 100 µM | > 100 µM | > 100 | > 100 | > 100 | > 100 µM | – | – | – | – | – | – | – | – | – | –
COc1ccc(/C=C/C(=O)/C=C(O)/C=C/c2ccc(OC)c(OC)c2)cc1OC | > 100 | > 100 | > 100 µM | 7.53 | > 100 µM | 44 µM | > 100 | 21.8 | – | 34.9 µM | 6.36 | 3.59 | 2.52 | 27.6 | 18.4 µM | 2.99 µM | 3.94 | – | 0.493 | 14.5
Cc1c(C(=O)c2ccccc2)[n+](=O)c2cc(F)c(F)cc2n1[O-] | 3.46 | 21 | 4.34 µM | 3.88 | > 100 µM | – | 3.08 | 3.16 | 12.9 | – | 1.95 | 2.67 | 1.93 | 3.11 | – | 1.71 µM | 1.72 | 3.94 | 4.35 | –
NC(=O)c1csc(-c2ccc(CO)o2)n1 | > 100 | > 100 | > 100 µM | > 100 | > 100 µM | > 100 µM | > 100 | > 100 | > 100 | – | – | – | – | – | – | – | – | – | – | –
CCc1ccccc1NC(=O)C(=O)C1C(=O)N(c2ccccc2)N=C1N (stereo not given) | > 100 | – | > 100 µM | – | > 100 µM | > 100 µM | > 100 | > 100 | > 100 | > 100 µM | – | – | – | – | – | – | – | – | – | –
CC[C@@]1(O)C(=O)OCc2c1cc1n(c2=O)Cc2c-1nc1cc(F)c(C)c3c1c2[C@@H](NC(=O)CO)CC3 | 0.338 | – | 0.117 µM | 0.328 | > 100 µM | 4.56 µM | 1.76 | 0.0729 | 0.0404 | 3.51 µM | < 0.01 | < 0.0128 | < 0.01 | 0.206 | 0.176 µM | < 0.01 µM | < 0.01 | < 0.01 | – | 0.163
COC1C(=O)CCC2(CO2)C1(O)C1(C)OC1CC=C(C)C (stereo not given) | > 100 | 53 | – | – | > 100 µM | > 100 µM | > 100 | > 100 | – | 46.5 µM | – | – | – | – | – | – | – | – | – | –
CC(=O)Nc1ccc(C2=N/C(=C\c3ccc(Cl)cc3)C(=O)O2)cc1 | > 100 | – | > 100 µM | 63.7 | > 100 µM | > 100 µM | > 100 | > 100 | > 100 | 38.5 µM | – | – | – | – | – | – | – | – | – | –
CCCCCCCCCCCCCCCCCC[S+](C)CC (stereo not given) | 2.59 | 4.99 | 7.58 µM | – | 4.35 µM | 3.71 µM | – | 3.2 | – | 2.68 µM | 1.2 | 2.08 | – | 1.65 | 1.67 µM | – | 1.38 | – | 1.86 | 1.23
CC1(C)C(CC(=O)O)CCCC1CC(=O)O (stereo not given) | > 100 | > 100 | > 100 µM | – | > 100 µM | > 100 µM | > 100 | > 100 | – | – | – | – | – | – | – | – | – | – | – | –
Cc1ccc(NC(=O)CC2SC(=Nc3ccc(Cl)cc3)NC2=O)cc1C (stereo not given) | > 73.3 | – | > 64.3 µM | 18.4 | 35.6 µM | 33.9 µM | 32.7 | 35.6 | 35.4 | 33.6 µM | – | – | – | – | – | – | – | – | – | –
COCCn1c2c([n+](Cc3cnccn3)c1C)C(=O)c1ccccc1C2=O | 0.0843 | – | 0.0293 µM | < 0.01 | 0.012 µM | 0.0419 µM | < 0.01 | < 0.0113 | 0.0337 | 0.0373 µM | 0.027 | < 0.0143 | < 0.01 | < 0.01 | 0.0164 µM | < 0.01 µM | < 0.01 | < 0.01 | – | < 0.01
Cc1cc(C)nc(NS(=O)(=O)c2ccc(NC(=O)COC(=O)c3cccc4c(=O)c5ccccc5[nH]c34)cc2)n1 | 95.5 | – | > 100 µM | 70.9 | > 100 µM | > 100 µM | 38.4 | > 100 | 34 | 37.9 µM | – | – | – | – | – | – | – | – | – | –
CCOC(=O)C(=O)C(C#N)c1ccc(Cl)cc1 (stereo not given) | > 100 | – | > 100 µM | > 100 | > 100 µM | > 100 µM | > 100 | > 100 | > 100 | – | – | – | – | – | – | – | – | – | – | –
